Earlier results on one compound are cited in patent publication US11559485B2 (NANOCOPOEIA, LLC, priority 2020, dated 2023).

Each structure is given as a SMILES string. Structures can show the parent of a compound that is named as a salt.

The conditions of this series: low/moderate aqueous solubility and low permeability.

Turning to `Cc1cn(-c2cc(NC(=O)c3ccc(C)c(Nc4nccc(-c5cccnc5)n4)c3)cc(C(F)(F)F)c2)cn1` [Nilotinib monohydrochloride monohydrate], the BCS class result is on record as “Class IV”.
